Measurements taken from patent US4361563A, “Pyridazinone-substituted benzimidazoles and salts” (priority 1978, dated 1982).
Where a name gives a salt, the structure may show the parent alone.

How the values were obtained:
[1] = Acute toxicity, single oral dose; format: in vivo; conditions: mouse, in vivo, po; read-out: Acute toxicity mg/kg p.o.
Description: (§1) The acute toxicity of the substances tested was determined in white mice after oral adminstration of a single dose (observation time: 14 days).

white mice = experiment: Acute toxicity, single oral dose; format: in vivo; conditions: white mice, 14 days observation
Description: as §1

thrombocyte aggregation = experiment: Determination of the thrombocyte aggregation according to Born and Cross (collagen-provoked, platelet-rich plasma); format: cell-based, healthy test persons; conditions: collagen-induced aggregation
Description: TEST 1. DETERMINATION OF THE THROMBOCYTE AGGREGATION ACCORDING TO BORN AND CROSS [J. PHYSIOL. 170, 397 (1964)].
The thrombocyte aggregation was measured in platelet-rich plasma of healthy test persons. The decrease of the optical density was photometrically measured and recorded after addition of commercial collagen (Sigma, St. Louis, Mo., USA) which contained […] of collagen-fibrils per ml. The velocity of aggregation (Vmax) was determined by the angle of inclination of the density curve. The point of the curve, where the most light was transmitted, served for the determination of the optical density (o.d.). To provoke maximum aggregation, approximately 0.01 ml of the collagen solution was added to 1 ml of platelet-rich plasma.

cats = experiment: Determination of the hypotensive and positive inotropic activity in the cat; format: in vivo; conditions: for change in vivo at 0.1 mg/kg / change in vivo at 0.5 mg/kg / change in vivo at 2 mg/kg: Felis catus, iv, read-out: Change of dp/dt in %
Description: TEST 2. DETERMINATION OF THE HYPOTENSIVE AND POSITIVE INOTROPIC ACTIVITY IN THE CAT
The tests were performed in cats which were anesthetized with pentobarbital sodium (40 mg/kg i.p.). The animals breathed spontaneously. The arterial blood pressure was measured in the aorta abdominalis by a Statham pressure transducer (P 23 Dc). The positive inotropic effect was determined by measuring the pressure in the left […] by means of a catheter tipmanometer (Millar PC 350 A). This contractility parameter dp/dtmax was registered by means of an analog differentiating circuit. The substances under test were injected into a vena femoralis. Physiological sodium […] solution or polydiol 200 was used as solvent.

[2] = 0.5 mg/kg i.v., initial phase before decrease

Row | SMILES | LD50 at 336 h [1] [mg/kg] | EC50 (thrombocyte aggregation) [nM] | Change of blood pressure, first value of the pair (before the slash) (cats; 0.1 mg/kg i.v.) [mgm Hg] | Change of blood pressure, second value of the pair (after the slash) (cats; 0.1 mg/kg i.v.) [mgm Hg] | Duration of action (cats; 0.1 mg/kg i.v.) [min] | Change of blood pressure, first value of the pair (before the slash) (cats; 0.5 mg/kg i.v.) | Change of blood pressure, second value of the pair (after the slash) (cats; 0.5 mg/kg i.v.) [mgm Hg] | Duration of action (cats; 0.5 mg/kg i.v.) [min] | change in vivo at 0.1 mg/kg (cats; 0.1 mg/kg i.v.) [%] | change in vivo at 0.5 mg/kg (cats; 0.5 mg/kg i.v.) [%] | further results
1 | CC1CC(=O)NN=C1c1ccc2[nH]c(C(F)(F)F)nc2c1 (stereo not shown) [B, 2-Trifluoromethyl-5(6)-(5-methyl-3-oxo-4,5-dihydro-2H-6-pyridazinyl)-benzimidazole] | > 450 | 100 | -65 | -35 | > 55 | -49 mgm Hg | -43 | > 99 | 91 | 143 | animals died (white mice; 450 mg/kg p.o.): 0 out of 6
2 | Cc1nc2cc(C3=NNC(=O)CC3C)ccc2n1Cc1ccccc1 (stereo not shown) [M, 1-Benzyl-2-methyl-5-(5-methyl-3-oxo-4,5-dihydro-2H-6-pyridazinyl)-benzimidazole] |  |  | -37 | -33 | > 62 | -57 mgm Hg | -48 | > 110 | 123 | 106 | 
3 | COc1ccc(-c2nc3cc(C4=NNC(=O)CC4C)ccc3n2C)cc1 (stereo not shown) [K, 1-Methyl-2-(4-methoxy-phenyl)-5-(5-methyl-3-oxo-4,5-dihydro-2H-6-pyridazinyl)-benzimidazole] |  |  |  |  |  | -28 mgm Hg | -34 | > 40 |  | 50 | 
4 | Cc1ccc(-c2nc3cc(C4=NNC(=O)CC4C)ccc3[nH]2)cc1 (stereo not shown) [H, 2-(4-Methyl-phenyl)-5(6)-(5-methyl-3-oxo-4,5-dihydro-2H-6-pyridazinyl)-benzimidazole] | > 600 |  |  |  |  | -10 mgm Hg | -10 | > 69 |  | 118 | animals died (white mice; 600 mg/kg p.o.): 0 out of 6; duration of decrease of blood pressure (cats; 0.5 mg/kg i.v., decrease after 1 minute): > 50 min; initial increase of blood pressure, first value of the pair (cats; [2]): 33 mgm Hg; initial increase of blood pressure, second value of the pair (cats; [2]): 18 mgm Hg
5 | COc1ccc(-c2nc3cc(C4=NNC(=O)C(C)C4)ccc3[nH]2)cc1 (stereo not shown) [P, 2-(4-Methoxy-phenyl)-5(6)-(4-methyl-3-oxo-4,5-dihydro-2H-6-pyridazinyl)-benzimidazole, reference compound] |  |  |  |  |  | -10 mgm Hg | -10 | 1 |  | 9 | Change of blood pressure, first value of the pair (before the slash) (cats; 2.0 mg/kg i.v.): -35 mgm Hg; Change of blood pressure, second value of the pair (after the slash) (cats; 2.0 mg/kg i.v.): -35 mgm Hg; Duration of action (cats; 2.0 mg/kg i.v.): 1 min; change in vivo at 2 mg/kg (cats; 2.0 mg/kg i.v.): 5%
6 | CCCC(C)c1nc2cc(C3=NNC(=O)CC3C)ccc2[nH]1 (stereo not shown) [I, 2-(2-Pentyl)-5(6)-(5-methyl-3-oxo-4,5-dihydro-2H-6-pyridazinyl)-benzimidazole hydrochloride] |  |  | -10 | -13 | > 53 | -28 mgm Hg | -33 | > 52 | 83 | 103 | 
7 | Cc1nc2cc(C3=NNC(=O)CC3C)ccc2n1CCC(C)C (stereo not shown) [L, 1-(3-Methyl-butyl)-2-methyl-5-(5-methyl-3-oxo-4,5-dihydro-2H-6-pyridazinyl)-benzimidazole] |  | 50 |  |  |  |  |  |  |  |  | 
8 | CC1CC(=O)NN=C1c1ccc2[nH]c(-c3ccccc3F)nc2c1 (stereo not shown) [D, 2-(2-Fluoro-phenyl)-5(6)-(5-methyl-3-oxo-4,5-dihydro-2H-6-pyridazinyl)-benzimidazole] | > 600 |  |  |  |  |  | -10 | > 69 |  | 107 | animals died (white mice; 600 mg/kg p.o.): 0 out of 6
9 | CSc1nc2cc(C3=NNC(=O)CC3C)ccc2[nH]1 (stereo not shown) [F, 2-Methylmercapto-5(6)-(5-methyl-3-oxo-4,5-dihydro-2H-6-pyridazinyl)-benzimidazole] |  |  | -36 | -40 | > 28 | -48 mgm Hg | -66 | > 32 | 51 | 50 | 
10 | COc1ccc(-c2nc3cc(C4=NNC(=O)CC4C)ccc3[nH]2)c(OC)c1 (stereo not shown) [Compound E, 2-(2,4-Dimethoxy-phenyl)-5(6)-(5-methyl-3-oxo-4,5-dihydro-2H-6-pyridazinyl)-benzimidazole] |  |  |  |  |  | -28 mgm Hg | -33 | > 55 |  | 89 | 
11 | COc1ccc(-c2nc3cc(C4=NNC(=O)C(C)C4)ccc3[nH]2)c(OC)c1 (stereo not shown) [O, 2-(2,4-Dimethoxy-phenyl)-5(6)-(4-methyl-3-oxo-4,5-dihydro-2H-6-pyridazinyl)-benzimidazole, reference compound] |  |  |  |  |  | +15 mgm Hg | 6 | 2 |  | 10 | 
12 | CC1CC(=O)NN=C1c1ccc2[nH]cnc2c1 (stereo not shown) [C, 5(6)-(5-Methyl-3-oxo-4,5-dihydro-2H-6-pyridazinyl)-benzimidazole] |  | 120 |  |  |  | -55 mgm Hg | -48 | > 172 |  | 159 | 
13 | Cc1nc2cc(C3=NNC(=O)C(C)C3)ccc2[nH]1 (stereo not shown) [N, 2-Methyl-5(6)-(4-methyl-3-oxo-4,5-dihydro-2H-6-pyridazinyl)-benzimidazole, reference compound] | > 250 | 1000 |  |  |  |  | 3 | 22 |  | 23 | animals died (white mice; 250 mg/kg p.o.): 0 out of 10
14 | COc1ccc(-c2nc3ccc(C4=NNC(=O)CC4C)cc3[nH]2)cc1 (stereo not shown) [G, 2-(4-Methoxy-phenyl)-5(6)-(5-methyl-3-oxo-4,5-dihydro-2H-6-pyridazinyl)-benzimidazole] | ~600 | 80 |  | 0 | > 26 | -18 mgm Hg | -18 | > 72 | 23 | 64 | animals died (white mice; 600 mg/kg p.o.): 3 out of 6
15 | COc1ccc(-c2nc3cc(C4=NN(C)C(=O)C(C)C4)ccc3[nH]2)cc1 (stereo not shown) [Q, 2-(4-Methoxy-phenyl)-5(6)-(2,4-dimethyl-3-oxo-4,5-dihydro-2H-6-pyridazinyl)-benzimidazole, reference compound] |  |  |  |  |  | -12 mgm Hg | -12 | 11 |  | -16 | Change of blood pressure, first value of the pair (before the slash) (cats; 2.0 mg/kg i.v.): -40 mgm Hg; Duration of action (cats; 2.0 mg/kg i.v.): 3 min; change in vivo at 2 mg/kg (cats; 2.0 mg/kg i.v.): -26%
16 | Cc1nc2cc(C3=NNC(=O)CC3C)ccc2[nH]1 (stereo not shown) [Compound A, 2-Methyl-5(6)-(5-methyl-3-oxo-4,5-dihydro-2H-6-pyridazinyl)-benzimidazole] | > 600 | 10 | -26 | -24 | > 24 | -35 mgm Hg | -42 | > 187 | 53 | 116 | animals died (white mice; 600 mg/kg p.o.): 1 out of 3
